Source: ChEMBL document CHEMBL3272075, “Direct measurement of octanol-water partition coefficients by high-pressure liquid chromatography” (J Med Chem, 1976)

Legend:
physchem [1] = conditions: octanol/water
Description: Partition coefficient, log P of the compound by HPLC analysis

physchem [2] = conditions: octanol/water; remark: listed apart in the source
Description: Partition coefficient, log P of the compound by shake-flask technique

| Structure (SMILES) | logP (physchem [1]) | logP (physchem [2]) |
| --- | --- | --- |
| c1ccc2cnccc2c1 [ISOQUINOLINE] | 2.09 | 2.08 |
| Cc1cccnc1 [3-METHYLPYRIDINE] | 1.2 |  |
| CC(=O)Nc1ccc(OCC(O)CNC(C)C)cc1 (stereo not drawn) [PRACTOLOL] | 0.78 | 0.79 |
| Nc1ccncc1 [DALFAMPRIDINE] | 0.26 | 0.28 |
| Brc1cnc2ccccc2c1 | 3.03 |  |
| c1ccc2nc3ccccc3nc2c1 [PHENAZINE] | 2.81 | 2.85 |
| CC(=O)Nc1ccccc1 [ACETANILIDE] | 1.14 | 1.16 |
| COc1ccccc1 [ANISOLE] | 2.1 |  |
| Cc1ccnc2ccccc12 | 2.52 |  |
| c1ccc2nc3ccccc3cc2c1 [ACRIDINE] | 3.39 | 3.4 |
| c1ccc2ncccc2c1 [QUINOLINE] | 2.04 | 2.03 |
